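Cells were grown in 96-well plates and exposed to each compound for 48 hours at five concentrations; endpoints were interpolated linearly between bracketing concentrations, or set to the highest concentration if not reached. GI50 = concentration required for 50% inhibition of growth.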 Active and inactive are the calls of the source. Cut-off read from the data, not from the text of the source: active = GI50 up to about 1.1 µM and inactive = higher. Peptide text beside a SMILES is read from it. * marks the point of attachment. Cbz = O=C(OCc1ccccc1)*; OBn = c1ccc(CO*)cc1
How the values were obtained:
Test in all cases: NCI tumour cell line growth inhibition, 48 h
SK-MEL-28 = system: SK-MEL-28
UACC-62 = system: UACC-62
K562 = system: K562
Hs-578T = system: Hs-578T
A549 = system: A549
MDA-MB-435 = system: MDA-MB-435
NCI-H226 = system: NCI-H226
EKVX = system: EKVX
IGROV-1 = system: IGROV-1
KM12 = system: KM12
HOP-62 = system: HOP-62
MDA-N = system: MDA-N
MCF7 = system: MCF7
RXF 393 = system: RXF 393
NCI-H23 = system: NCI-H23
786-0 = system: 786-0
SF-268 = system: SF-268
T47D = system: T47D
HOP-92 = system: HOP-92
LOX IMVI = system: LOX IMVI

Measured: GI50

Cc1cc(C(=O)CCCCOc2ccc(C3=NCCO3)cc2)c(C)n1C
inactive: SK-MEL-28 25.4 µM | UACC-62 > 10 µM | K562 39.2 µM | Hs-578T 98.2 µM | A549 > 10 µM | MDA-MB-435 24.7 µM | NCI-H226 29.3 µM | EKVX 35.8 µM | IGROV-1 37.2 µM | KM12 38.5 µM | HOP-62 52.7 µM | MDA-N 28.1 µM | MCF7 33.3 µM | RXF 393 13.2 µM | NCI-H23 41.1 µM | 786-0 38.6 µM | SF-268 52.1 µM | T47D 23 µM

COc1ccc(OC)c2cc(Cc3ccc(N(C)C)cc3)c(=O)c(Cc3ccc(N(C)C)cc3)cc12
inactive: SK-MEL-28 > 100 µM | UACC-62 59.4 µM | K562 34.4 µM | Hs-578T 25.5 µM | A549 57 µM | MDA-MB-435 > 100 µM | NCI-H226 47.3 µM | EKVX > 100 µM | IGROV-1 45.7 µM | KM12 > 100 µM | HOP-62 58.6 µM | MDA-N > 100 µM | MCF7 > 100 µM | RXF 393 > 100 µM | HOP-92 > 100 µM | NCI-H23 > 100 µM | 786-0 90.8 µM | SF-268 46.7 µM | T47D 76.9 µM

COc1ccc(/C=N/NC(=O)c2ccccc2Nc2ccccc2C(=O)N/N=C/c2ccc(OC)c(OC)c2)cc1OC
inactive: SK-MEL-28 > 100 µM | UACC-62 > 100 µM | K562 > 100 µM | Hs-578T > 100 µM | A549 > 100 µM | MDA-MB-435 > 100 µM | NCI-H226 > 100 µM | EKVX > 100 µM | IGROV-1 > 100 µM | KM12 > 100 µM | HOP-62 > 100 µM | MDA-N > 100 µM | MCF7 > 100 µM | RXF 393 > 100 µM | HOP-92 71.9 µM | NCI-H23 > 100 µM | 786-0 > 100 µM | SF-268 > 100 µM | T47D > 100 µM

CSc1c(C(=O)Nc2ccccc2)c(N)n(N)c(=O)c1C#N
inactive: SK-MEL-28 > 100 µM | UACC-62 > 100 µM | K562 > 100 µM | Hs-578T > 100 µM | A549 > 100 µM | MDA-MB-435 > 100 µM | NCI-H226 > 100 µM | EKVX > 100 µM | IGROV-1 > 100 µM | KM12 > 100 µM | MDA-N > 100 µM | MCF7 > 100 µM | RXF 393 > 100 µM | NCI-H23 > 100 µM | 786-0 > 100 µM | SF-268 > 100 µM | T47D > 100 µM | LOX IMVI > 100 µM

CC(C(N)C(=O)NC(C(=O)O)C1OC(n2ccc(=O)[nH]c2=O)C(O)C1O)C(O)c1ccc(O)cn1 (stereo unspecified)
inactive: SK-MEL-28 > 100 µM | UACC-62 > 100 µM | Hs-578T > 100 µM | A549 > 100 µM | MDA-MB-435 > 100 µM | EKVX > 100 µM | IGROV-1 > 100 µM | KM12 > 100 µM | HOP-62 > 100 µM | MDA-N > 100 µM | MCF7 > 100 µM | HOP-92 > 100 µM | NCI-H23 > 100 µM | 786-0 > 100 µM | SF-268 > 100 µM | T47D > 100 µM | LOX IMVI > 100 µM

COC(=O)Cc1ccc2c(cnn2-c2ccccc2)c1OC
inactive: SK-MEL-28 > 10 µM | UACC-62 > 10 µM | K562 > 10 µM | Hs-578T > 10 µM | A549 > 10 µM | MDA-MB-435 > 10 µM | NCI-H226 > 10 µM | EKVX 9.75 µM | IGROV-1 > 10 µM | KM12 > 10 µM | HOP-62 > 10 µM | MDA-N > 10 µM | MCF7 > 10 µM | RXF 393 > 10 µM | NCI-H23 > 10 µM | 786-0 > 10 µM | SF-268 > 10 µM | T47D > 10 µM | LOX IMVI > 10 µM

Cc1cc2c(cc1Cl)SC(NN(C)C)=NS2(=O)=O
inactive: SK-MEL-28 > 10 µM | UACC-62 > 10 µM | K562 > 10 µM | Hs-578T > 10 µM | A549 > 10 µM | MDA-MB-435 > 10 µM | NCI-H226 > 10 µM | EKVX > 10 µM | IGROV-1 > 10 µM | KM12 > 10 µM | HOP-62 > 10 µM | MDA-N > 10 µM | MCF7 > 10 µM | RXF 393 > 10 µM | NCI-H23 > 10 µM | 786-0 > 10 µM | SF-268 > 10 µM | T47D > 10 µM | LOX IMVI > 10 µM

O=C1[C@H](c2ccccc2)C2c3ccccc3CCN12 (stereo partly specified)
inactive: SK-MEL-28 > 10 µM | UACC-62 > 10 µM | K562 > 10 µM | Hs-578T > 10 µM | A549 > 10 µM | MDA-MB-435 > 10 µM | NCI-H226 > 10 µM | EKVX > 10 µM | IGROV-1 > 10 µM | KM12 > 10 µM | HOP-62 > 10 µM | MDA-N > 10 µM | MCF7 > 10 µM | RXF 393 > 10 µM | NCI-H23 > 10 µM | 786-0 > 10 µM | SF-268 > 10 µM | T47D > 10 µM | LOX IMVI > 10 µM

N#Cc1nc(Cc2ccccc2)oc1N
inactive: SK-MEL-28 > 100 µM | K562 42.1 µM | Hs-578T 25.2 µM | A549 > 100 µM | MDA-MB-435 > 100 µM | NCI-H226 > 100 µM | EKVX > 100 µM | IGROV-1 > 100 µM | KM12 > 100 µM | HOP-62 > 100 µM | MDA-N > 100 µM | MCF7 > 100 µM | RXF 393 > 100 µM | NCI-H23 > 100 µM | 786-0 > 100 µM | SF-268 > 100 µM | T47D > 100 µM | LOX IMVI > 100 µM

CC1(C)C2CC(=O)C1(C)C(O)C2Br (stereo unspecified)
inactive: SK-MEL-28 > 100 µM | UACC-62 > 100 µM | K562 > 100 µM | Hs-578T 98.2 µM | A549 > 100 µM | MDA-MB-435 > 100 µM | NCI-H226 > 100 µM | EKVX > 100 µM | IGROV-1 > 100 µM | KM12 > 100 µM | HOP-62 > 100 µM | MDA-N > 100 µM | MCF7 > 100 µM | RXF 393 > 100 µM | HOP-92 > 100 µM | NCI-H23 > 100 µM | 786-0 > 100 µM | SF-268 > 100 µM | T47D > 100 µM

CCC1C(=O)C(O)[C@H]2[C@@H]3C(O)CC4=CC(=O)CC[C@]4(C)[C@H]3CC[C@]12C (stereo partly specified)
inactive: SK-MEL-28 > 50 µM | UACC-62 > 50 µM | K562 > 50 µM | Hs-578T > 50 µM | A549 > 50 µM | MDA-MB-435 > 50 µM | EKVX > 50 µM | IGROV-1 > 50 µM | KM12 > 50 µM | HOP-62 > 50 µM | MDA-N > 50 µM | MCF7 > 50 µM | HOP-92 > 50 µM | NCI-H23 > 50 µM | 786-0 > 50 µM | SF-268 > 50 µM | T47D > 50 µM | LOX IMVI > 50 µM

COc1ccc(N2CCOCC2)cc1
inactive: SK-MEL-28 > 100 µM | UACC-62 > 100 µM | K562 > 100 µM | Hs-578T > 100 µM | A549 > 100 µM | MDA-MB-435 > 100 µM | NCI-H226 > 100 µM | EKVX > 100 µM | IGROV-1 > 100 µM | KM12 > 100 µM | HOP-62 > 100 µM | MDA-N > 100 µM | MCF7 > 100 µM | RXF 393 > 100 µM | HOP-92 > 100 µM | NCI-H23 > 100 µM | 786-0 > 100 µM | SF-268 > 100 µM | T47D > 100 µM

CC(C)(C)c1ccc2c(c1)C#Cc1cc(C(C)(C)C)ccc1OCCCO2
inactive: SK-MEL-28 > 100 µM | UACC-62 > 100 µM | K562 > 100 µM | Hs-578T > 100 µM | A549 > 100 µM | MDA-MB-435 > 100 µM | NCI-H226 > 100 µM | EKVX > 100 µM | IGROV-1 > 100 µM | KM12 > 100 µM | HOP-62 > 100 µM | MDA-N > 100 µM | MCF7 > 100 µM | RXF 393 > 100 µM | NCI-H23 > 100 µM | 786-0 > 100 µM | SF-268 > 100 µM | T47D > 100 µM | LOX IMVI > 100 µM

CC[C@@]1(C[C@H]2C[C@@]3(C(=O)OC)c4[nH]c5ccccc5c4CCN3C2=S)COC2(CCCCC2)O1
inactive: UACC-62 11.3 µM | K562 5.48 µM | Hs-578T 10.6 µM | A549 54.6 µM | MDA-MB-435 5.09 µM | EKVX 58.9 µM | IGROV-1 61.7 µM | KM12 4.47 µM | HOP-62 22.2 µM | MDA-N 66.8 µM | MCF7 33.3 µM | RXF 393 59.6 µM | HOP-92 2.62 µM | NCI-H23 21.4 µM | 786-0 > 100 µM | SF-268 62.5 µM | T47D 26.2 µM | LOX IMVI 78 µM

COC(=O)CNC(=O)C(C)NC(=O)C(CC(=O)OCc1ccccc1)NC(=O)OCc1ccccc1 (stereo not drawn) (Cbz-Asp(OBn)-Ala-Gly-OMe; configuration not given here)
inactive: SK-MEL-28 80.2 µM | UACC-62 58.3 µM | K562 27.5 µM | Hs-578T 43.9 µM | A549 39.5 µM | MDA-MB-435 37.1 µM | NCI-H226 36.1 µM | IGROV-1 > 100 µM | KM12 73.6 µM | HOP-62 > 100 µM | MDA-N 53.6 µM | MCF7 55.7 µM | RXF 393 13.8 µM | HOP-92 66.5 µM | NCI-H23 36.6 µM | 786-0 > 100 µM | T47D 21.6 µM
